Measured values from paper PMC6222898, “Cinnamoyl-Oxaborole Amides: Synthesis and Their in Vitro Biological Activity” (Molecules : A Journal of Synthetic Chemistry and Natural …, 2018).
In brackets after ≈: the same amount, converted by molar mass. Where two headings read alike, the source gives them in different places.

What was measured:
[1] = system: Trypanosoma brucei brucei 427 trypomastigotes; details: cited from earlier work
[2] = system: Dd2; design: method as in PMID 11310613; details: Figure 2; cited from earlier work
[3] = system: Trypanosoma brucei brucei 427 trypomastigotes; test: In vitro antitrypanosomal assay (resazurin viability); assay type: cell-based; details: T. b. brucei 427, 24 h incubation
Method: Trypanosoma brucei brucei 427 trypomastigotes were cultured in Iscove’sss Modified Dulbecco’s medium (IMDM, Lonza, Basel Switzerland) supplemented with 10% fetal calf serum, HMI-9 supplement, hypoxanthine, and penicillin/streptomycin at 37 °C in a 5% CO2 incubator. […] Reduction of resazurin to resorufin by viable parasites was assessed by fluorescence readings (excitation 560 nm, emission 590 nm) in a Spectramax M3 plate reader (Molecular Devices, San Jose, CA, USA). Fluorescence readings were converted to % parasite viability relative to the average readings obtained from untreated control wells. IC50 values were determined by plotting % viability vs. log[compound] and performing non-linear regression using GraphPad Prism (v. 5.02) software.

[4] = In vitro cytotoxicity assay (resazurin); assay type: cell-based; details: human, HeLa cells; 20 μM compound; 48 h exposure, 24 h
Method: HeLa cells (Cellonex, Johannesburg, South Africa) seeded in 96-well plates were incubated with 20 μM test compounds for 24 h and cell viability assessed using a resazurin fluorescence assay as previously described.

[5] = system: Trichomonas vaginalis G3 strain; test: In vitro antitrichomonal assay (hemocytometer counts); assay type: cell-based; details: 24 h, read-out: IC50 T. vaginalis
[6] = system: Mycobacterium tuberculosis H37Rv; test: In vitro antimycobacterial broth microdilution assay; assay type: cell-based; details: concentration inhibiting mycobacterial growth by 99%

Row | Structure (SMILES) | IC50 antitrypanosomal ([1]; T. b. brucei, footnote a: IC50 in μg/mL) | IC50 antitrypanosomal ([1]; T. b. brucei S427, footnote b: IC50 in μg/mL) | IC50 [2] | melting point | IC50 [3] | viability at 48 h, 20 µM [4] | IC50 [5] | MIC99 [6]
1 | CC1(C)OB(O)c2cc(NC(=O)c3ccc(F)cc3C(F)(F)F)ccc21 [Compound 1, SCYX-7158] | 0.292 ± 0.019 ^a μg/mL | – | – | – | – | – | – | –
2 | O=C(CCc1ccccc1)Nc1ccc2c(c1)B(O)OC2 [Compound 2] | – | 0.14 ^b μg/mL | – | – | – | – | – | –
3 | Cc1ccc(CC(=O)Nc2ccc(NC(=O)/C=C/c3ccc(OCc4ccccc4)cc3)cc2C(=O)c2ccccc2)cc1 [Compound 4, 2,5-bisacylaminobenzonephone] | – | – | 650 nM | – | – | – | – | –
4 | O=C(/C=C/c1ccccc1)Nc1ccc2c(c1)B(O)OC2 [Compound 5a, (E)-N-(1-Hydroxy-1,3-dihydrobenzo[c][1,2]oxaborol-6-yl)cinnamamide] | – | – | – | 182 to 184 °C | 130 ± 20 nM | 108 ± 5.35% | 15300 ± 330 nM | 61.8 µM (≈ 17.2 µg/mL)
5 | O=C(/C=C/c1cccc([N+](=O)[O-])c1)Nc1ccc2c(c1)B(O)OC2 [Compound 5b, (E)-N-(1-Hydroxy-1,3-dihydrobenzo[c][1,2]oxaborol-6-yl)-3-(3-nitrophenyl)acrylamide] | – | – | – | 176 to 178 °C | 130 ± 10 nM | 87 ± 1.59% | 41700 ± 230 nM | 107 µM (≈ 34.7 µg/mL)
6 | O=C(/C=C/c1ccc([N+](=O)[O-])cc1)Nc1ccc2c(c1)B(O)OC2 [Compound 5c, (E)-N-(1-Hydroxy-1,3-dihydrobenzo[c][1,2]oxaborol-6-yl)-3-(4-nitrophenyl)acrylamide] | – | – | – | 176 to 180 °C | 920 ± 40 nM | 94.3 ± 28.8% | 10200 ± 560 nM | 26.5 µM (≈ 8.59 µg/mL)
7 | O=C(/C=C/c1ccc(Br)cc1)Nc1ccc2c(c1)B(O)OC2 [Compound 5d, (E)-3-(4-Bromophenyl)-N-(1-hydroxy-1,3-dihydrobenzo[c][1,2]oxaborol-6-yl)acrylamide] | – | – | – | 206 to 210 °C | 470 ± 40 nM | 89.9 ± 5.12% | 12600 ± 280 nM | 10.7 µM (≈ 3.83 µg/mL)
8 | COc1ccc(/C=C/C(=O)Nc2ccc3c(c2)B(O)OC3)cc1 [Compound 5e, (E)-N-(1-Hydroxy-1,3-dihydrobenzo[c][1,2]oxaborol-6-yl)-3-(4-methoxyphenyl)acrylamide] | – | – | – | 190 to 192 °C | 660 ± 30 nM | 102 ± 2.34% | 11700 ± 280 nM | 18.7 µM (≈ 5.78 µg/mL)
9 | COc1ccc(/C=C/C(=O)Nc2ccc3c(c2)B(O)OC3)cc1OC [Compound 5f, (E)-3-(3,4-Dimethoxyphenyl)-N-(1-hydroxy-1,3-dihydrobenzo[c][1,2]oxaborol-6-yl)acrylamide] | – | – | – | 188 to 190 °C | 8710 ± 650 nM | 109.9 ± 0.84% | > 50000 nM | –
10 | O=C(/C=C/c1ccc2c(c1)OCO2)Nc1ccc2c(c1)B(O)OC2 [Compound 5g, (E)-3-(Benzo[d][1,3]-6-dioxol-5-yl)-N-(1-hydroxy-1,3-dihydrobenzo[c][1,2]oxaborol-6-yl)acrylamide] | – | – | – | 145 to 148 °C | 86 ± 2 nM | 132 ± 26.6% | 22800 ± 1020 nM | 40.7 µM (≈ 13.2 µg/mL)
11 | CC[C@H]1CN2CCc3cc(OC)c(OC)cc3[C@@H]2C[C@@H]1C[C@H]1NCCc2cc(OC)c(OC)cc21 [EM, emetine, reference compound] | – | – | – | – | – | 3.19% | – | –
12 | Cc1ncc([N+](=O)[O-])n1CCO [ME, metronidazole, reference compound] | – | – | – | – | – | – | 530 nM | –
13 | N=C(N)c1ccc(OCCCCCOc2ccc(C(=N)N)cc2)cc1 [PE, pentamidine, reference compound] | – | – | – | – | 1.2 ± 0.1 nM | – | – | –
14 | CO[C@H]1/C=C/O[C@@]2(C)Oc3c(C)c(O)c4c(O)c(c(/C=N/N5CCN(C)CC5)c(O)c4c3C2=O)NC(=O)/C(C)=C\C=C\[C@H](C)[C@H](O)[C@@H](C)[C@@H](O)[C@@H](C)[C@H](OC(C)=O)[C@@H]1C [RE, rifampicin, reference compound] | – | – | – | – | – | – | – | 0.003 µM (≈ 0.00247 µg/mL)
